Measured values: patent US20230233589A1, “METHODS FOR TREATING CANCER USING A MODIFIED MONOSACCHARIDE COMPOUND” (THERAONCO, priority 2020, published 2023)

Assay: Clinical follow-up of treated mice (body weight, water consumption)
Type: in vivo, NMRI nude mice
Protocol: 45 female NMRI nude mice, 6 weeks old.
Clinical follow-up: animals weight and tumor volume: 2-3 times a week.
Hela and Cal33 Cell Lines • cumulative dose of 20 mg (5 mg/mouse/inj repeated 1 day/2 for 8 days (4 times)) Panc-1 cell line • cumulative dose of […] (9 mg/mouse/injection repeated 1 day/2 for 21 days (11 times))
Hela Cell Lines • cumulative dose of 200 mg per mouse: 25 mg/day (8 mL/day @ 3.13 mg/mL) over 8 days
Cal33 Cell Lines • cumulative dose of 400 mg per mouse: 50 mg/day (8 mL/day @ 6.25 mg/mL) over 8 days
Panc-1 Cell Line • cumulative dose of 200 mg per mouse: 9.5 mg/day (8 mL/day @ 1.19 mg/mL) over 21 days

For [N-]=[N+]=NC[C@H]1OC(O)[C@@H](O)[C@@H]1O (stereo partly drawn) [Ara-N3, 5-azido-5-deoxy-D-arabinofuranose], the “water consumption of the mice” value (Ara-N3 in drinking water up to 6.25 mg/mL) was “did not alter the water consumption”, the body weight loss (treatment by intravenous injections) was “did not induce any body weight loss” and the body weight loss (treatment in drinking water) was “did not induce any body weight loss”.
